In the NIST ThermoML archive (doi:10.1021/acs.jced.8b00509):
Numbers after ± are expanded uncertainties.

Test: mn = molality of the nth substance listed, in mol/kg
Details: 100 kPa, Liquid; for speed of sound: Frequency=3 MHz, Single path-length method; for mass density: Vibrating tube method; for viscosity: Capillary tube (Ostwald / Ubbelohde) method

C[C@H](CCC(=O)[O-])[C@H]1CC[C@H]2[C@@H]3CC[C@@H]4C[C@H](O)CC[C@]4(C)[C@H]3C[C@H](O)[C@]12C.[Na+] [sodium deoxycholate] + O
Details	mass density, 303.15 K [kg/m3]	mass density, 308.15 K [kg/m3]	mass density, 313.15 K [kg/m3]	speed of sound, 303.15 K [m/s]	speed of sound, 308.15 K [m/s]	speed of sound, 313.15 K [m/s]	viscosity, 308.15 K [mPa·s]	viscosity, 313.15 K [mPa·s]
m1 = 0.001	995.81 ± 0.3	994.18 ± 0.31	992.3 ± 0.29	–	1520.1 ± 6	1529.2 ± 6	0.72 ± 0.026	0.654 ± 0.027
m1 = 0.002	995.91 ± 0.3	994.27 ± 0.31	992.45 ± 0.26	–	1520.4 ± 6.1	1529.4 ± 6	0.721 ± 0.026	0.655 ± 0.027
m1 = 0.003	995.98 ± 0.29	994.35 ± 0.29	992.53 ± 0.25	–	1520.6 ± 6.1	1529.6 ± 6	0.722 ± 0.028	0.657 ± 0.03
m1 = 0.004	996.07 ± 0.27	994.44 ± 0.27	992.61 ± 0.27	–	1520.8 ± 6	1529.8 ± 6	0.726 ± 0.028	0.659 ± 0.028
m1 = 0.005	996.14 ± 0.27	994.52 ± 0.27	992.69 ± 0.26	–	1521.2 ± 6	1529.9 ± 6	0.73 ± 0.029	0.664 ± 0.029
m1 = 0.006	996.22 ± 0.27	994.59 ± 0.27	992.76 ± 0.26	–	1521.5 ± 6	1530.1 ± 6	0.743 ± 0.029	0.678 ± 0.029
m1 = 0.007	996.3 ± 0.27	994.68 ± 0.27	992.84 ± 0.26	1510.9 ± 6	1521.7 ± 6	1530.3 ± 6	0.752 ± 0.029	0.686 ± 0.029
m1 = 0.008	996.39 ± 0.28	994.77 ± 0.27	992.93 ± 0.26	1511.2 ± 6	1522 ± 6	1530.5 ± 6	0.756 ± 0.028	0.69 ± 0.029
m1 = 0.009	996.48 ± 0.28	994.84 ± 0.27	993.01 ± 0.27	1511.4 ± 6	1522.2 ± 6	1530.7 ± 6	0.76 ± 0.027	0.694 ± 0.027
m1 = 0.01	996.58 ± 0.27	994.93 ± 0.25	993.1 ± 0.27	1511.6 ± 6	1522.4 ± 6	1530.9 ± 6	0.763 ± 0.028	0.695 ± 0.027
m1 = 0.011	996.66 ± 0.26	995.02 ± 0.25	993.2 ± 0.27	1511.9 ± 6	1522.2 ± 6	1531 ± 6	0.764 ± 0.027	0.699 ± 0.027
m1 = 0.012	996.75 ± 0.26	995.1 ± 0.26	993.28 ± 0.27	1512 ± 6	1522.4 ± 6	1531.2 ± 6	0.766 ± 0.027	0.699 ± 0.027
